Test results taken from patent US20060003030A1, “Essential oils for treating and/ or preventing allergic disease” (priority 2004, published 2006).
Values after ≈ are worked out from the molar mass of the structure shown.

Experiments:
[1] = system: PAF-induced platelet aggregation; assay: Inhibitory activity of essential oils on PAF-induced platelet aggregation; type: cell-based, New Zealand rabbit; conditions: rabbit washed platelet suspension, PAF added 2 min after sample, aggregation observed 4 min
Method: The anticoagulant “acid-citrate-dextrose” (ACD) was added to the blood taken from a New Zealand rabbit in a ratio of 1:6 by volume. The resulting blood was centrifuged at 190 g for 15 min at room temperature. After centrifugation, the supernatant containing platelet-rich plasma (PRP) was taken and 0.2 M EDTA was added. The resulting supernatant was centrifuged at 1000 g for 1.5 min. After centrifugation, the pellet containing RBC and WBC was removed and then PRP was centrifuged at 1000 g for 11 min. After centrifugation, the supernatant was removed and the platelet pellet was suspended in Ca^2+--free Tyrode's buffer (containing 1 mM Ca2+). […] The turbidity was determined with a Platelet Aggregation Chromogenic Kinetic System.
0.5 ml of platelet suspension was added to silicon-coated cuvette and put in a Platelet Aggregation Chromogenic Kinetic System and bathed for 2 min at 37° C. […] The ratio of aggregation was calculated by the following formula: Ratio of aggregation %=(absorptivity before adding PAF−absorptivity after adding PAF/(absorptivity before adding PAF−absorptivity of Tyrode's buffer)×100% The ratio of inhibition was calculated by the following formula: Ratio of inhibition %=100%−(ratio of aggregation of sample/ratio of aggregation of control×100%)

[2] = system: mouse macrophage cell line RAW 264.7; assay: Inhibitory effect of essential oils on NO production by LPS-activated mouse macrophage cell line (Griess reagent); type: cell-based; conditions: positive control, concentration not given; LPS (Inducer) 60 ± 0.5, Blank 3.5 ± 0.3
Method: The mouse macrophage cell line RAW 264.7 was purchased from Bioresources Collection & Research Center, Taiwan and numbered CCRC 60001. The cells were added to Dulbecco's Modified Eagle Medium (DMEM, GibcoBRL) containing 10% (v/v) fetal bovine serum (FBS, GibcoBRL) and then incubated in a CO2 incubator containing 5% CO2 at 37° C. The cells grow to 90% density and are then washed with phosphate buffered saline (PBS). The cells were colleted and diluted with fresh DMEM to the appropriate concentration.
The mouse macrophage cells were transferred in a 96-well plate in a concentration of 10,000 cells/well. After incubating for 24 hours, the cells were activated with the medium containing 100 μg/ml Lipopolysaccharide (LPS, SIGMA) and 100·μg/ml Interferon-γ (INF-γ, GibcoBRL). Meanwhile, the essential oils of herbal medicine in different concentrations were added to the wells. After incubating for 24 hours, 50 μl of supernatants were respectively taken and put into a 96-well plate. […] Then, the absorbance of the resulting cell supernatants was determined with a microplate reader at a wavelength of […]. The percentage of nitric oxide can be calculated by the following formula: % nitric oxide=(sample absorptivity/control absorptivity)×100%.

SMILES	IC50 [1]	Nitric oxide [2]
CCCCCCCCCCCCCCCCCCNC(=O)OCC(COP(=O)([O-])OCC[n+]1ccsc1)OC (centres unmarked) [CV-3988]	1.42 mg/mL (≈ 2400 µM)	
CNC(=N)NCCC[C@H](N)C(=O)O [L-NMMA]		25 ± 0.6 µM
